Where two headings read alike, the source gives them in different places.
Assays:
Format in all cases: cell-based
[1] = system: T47D (PI3Kα H1047R mutant) cells; assay: Inhibition of pAKT formation, alphaLISA SureFire Ultra AKT 1/2/3 (pS473), T47D cells; settings: Homo sapiens, T47D, T47D (PI3Kα H1047R mutant) cells; inhibition of pAKT (pS473) formation; approximately one hour or 24 hours treatment; read-out: T47D pAKT (H1047R mutant) IC50
Procedure: The ability of a compound of Formula (I) to inhibit the formation of pAKT was measured using alphaLISA Surefire Ultra AKT 1/2/3 (pS473) Assay Kit (#ALSU-PAKT-B50K) was obtained from Perkin Elmer (Waltham, MA).
To prepare assay plates for pAKT alphaLISA assays, cells were trypsinized, resuspended in fresh media, and viable cells were counted utilizing trypan blue exclusion. Prior to seeding, cells were washed with PBS and resuspended in HBSS (Gibco, #14025092). T47D (12,000/w), SKBR3(12,000/w), or MKN1(24,000/w) cells were seeded at 12 μl per well in a solid white flat bottom 384 cell culture plate (Perkin Elmer #6007680).
Immediately after seeding, cells were dosed using an Echo Liquid Handler (Beckman Coulter) with compounds at a […] starting concentration and serially diluted (1:4) for a total of 10 concentrations. […] Cells were incubated with the compounds (solubilized in DMSO) for approximately one hour or 24 hours at 37° C. After one hour (or 24 hours) of treatment, cells were lysed with 3 μl of the 5× lysis buffer (provided and incubated at room temperature for 15 min on a microtiter plate shaker). Once cells were sufficiently lysed, 7.5 μl of the acceptor bead mix (made using the manufacturers recommended dilutions) was added to each well and left on the microtiter plate shaker for 1 min prior to incubating plates at room temperature for one hour, in the absence of light. After one hour of incubation with the acceptor bead mix, 7.5 μl of the donor bead mix (made using the manufacturers recommended dilutions) was added to each well and left on the microtiter plate shaker for 1 min prior to incubating plates at room temperature overnight in the absence of light. Plates were then imaged the following day using a CLARIOstar microplate reader (BMG Labtech, Germany).
Percent of control values were calculated by subtracting the average signal from the positive control (alpelisib) treated wells from all treated wells (including DMSO control wells) and then divided by the average signal from the vehicle DMSO treated control wells. Percent of vehicle control values were plotted as log (inhibitor) vs. response-Variable slope (four parameters) for curve fitting and IC50 values were determined using XLfit.
Key: N.D. =not determined
Inhibition of pAKT in T47D (PI3Kα H1047R mutant) cells by Exemplary Compounds of Formula (I)

[2] = system: T47D (PI3Kα H1047R mutant) cells; assay: CellTiter-Glo 2.0 luminescent cell viability assay, 72 hours, T47D cells; settings: T47D (PI3Kα H1047R mutant) cells, CellTiter-Glo, approximately 72 hours, read-out: T47D (H1047R mutant) Viability IC50
In short: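 Cells seeded at 1000 per well overnight were dosed with a 10-concentration, 1:4 series starting at 10 µM and incubated ~72 h at 37° C. Viability was read by CellTiter-Glo 2.0 luminescence after 30 min at room temperature. IC50 came from four-parameter fits of percent vehicle control.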

[3] = system: SKBR3 (PI3Kα wild type) cells; assay: CellTiter-Glo 2.0 luminescent cell viability assay, 72 hours, SKBR3 cells; settings: SKBR3 (PI3Kα wild type) cells, CellTiter-Glo, approximately 72 hours, read-out: SKBR3 (WT) Viability IC50
In short: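 Viability measured via CTG luminescence following roughly 72 hours of compound exposure at 37° C. Dosing used a 10 um starting concentration diluted 1:4 over 10 points; percent-of-vehicle data fitted with a variable-slope four-parameter model for IC50.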

| SMILES | IC50 [1] | IC50 ([2]; Homo sapiens, T47D, 72 h) | IC50 ([3]; Homo sapiens, SK-BR-3, 72 h) | IC50 [2] | IC50 [3] |
| --- | --- | --- | --- | --- | --- |
| Cc1cc([C@@H](C)Nc2ccccc2C(=O)O)c2nc(C3CCN(c4ccc(C#N)cc4)CC3)c(C)c(=O)n2c1 [Example 10-120, (R)-2-((1-(2-(1-(4-cyanophenyl)piperidin-4-yl)-3,7-dimethyl-4-oxo-4H-pyrido[1,2-a]pyrimidin-9-yl)ethyl)amino)benzoic acid] | 2.25 nM | 103 nM | > 10000 nM |  |  |
| Cc1cc([C@@H](C)Nc2ccccc2C(=O)O)c2nc(N3CCc4sc(C)nc4C3)c(C#N)c(=O)n2c1 [Example 11-305, (R)-2-((1-(3-cyano-7-methyl-2-(2-methyl-6,7-dihydrothiazolo[4,5-c]pyridin-5(4H)-yl)-4-oxo-4H-pyrido[1,2-a]pyrimidin-9-yl)ethyl)amino)benzoic acid] |  | 501 nM | > 10000 nM |  |  |
| Cc1cc([C@@H](C)Nc2ccccc2C(=O)O)c2nc(N3CCC4(CCCO4)CC3)c(C)c(=O)n2c1 [Example 11-63, (R)-2-((1-(3,7-dimethyl-4-oxo-2-(1-oxa-8-azaspiro[4.5]decan-8-yl)-4H-pyrido[1,2-a]pyrimidin-9-yl)ethyl)amino)benzoic acid] |  | 136 nM | > 10000 nM |  |  |
| Cc1cc([C@@H](C)Nc2ccccc2C(=O)O)c2nc(N3CCN(c4cccc(C#N)c4)C[C@H]3C)c(C)c(=O)n2c1 [Example 11-87, 2-(((R)-1-(2-((R)-4-(3-cyanophenyl)-2-methylpiperazin-1-yl)-3,7-dimethyl-4-oxo-4H-pyrido[1,2-a]pyrimidin-9-yl)ethyl)amino)benzoic acid] |  | 156 nM | > 10000 nM |  |  |
| Cc1cc([C@@H](C)Nc2ccccc2C(=O)O)c2nc(N3CCCC(F)(F)C3)c(C#N)c(=O)n2c1 [Example 11-297, (R)-2-((1-(3-cyano-2-(3,3-difluoropiperidin-1-yl)-7-methyl-4-oxo-4H-pyrido[1,2-a]pyrimidin-9-yl)ethyl)amino)benzoic acid] |  | 195 nM | > 10000 nM |  |  |
| Cc1cc([C@@H](C)Nc2ccc(Cl)nc2C(=O)O)c2nc(N3CCN(c4ccc(C#N)cc4)C[C@H]3C)c(C#N)c(=O)n2c1 [Example 11-128, 6-chloro-3-(((R)-1-(3-cyano-2-((R)-4-(4-cyanophenyl)-2-methylpiperazin-1-yl)-7-methyl-4-oxo-4H-pyrido[1,2-a]pyrimidin-9-yl)ethyl)amino)picolinic acid] |  | 275 nM | > 10000 nM |  |  |
| Cc1cc([C@@H](C)Nc2ccccc2C(=O)O)c2nc(N3CCC(C(F)(F)F)CC3)c(C#N)c(=O)n2c1 [Example 11-70, (R)-2-((1-(3-cyano-7-methyl-4-oxo-2-(4-(trifluoromethyl)piperidin-1-yl)-4H-pyrido[1,2-a]pyrimidin-9-yl)ethyl)amino)benzoic acid] |  | 268 nM | > 10000 nM |  |  |
| Cc1cc([C@@H](C)Nc2ccccc2C(=O)O)c2nc(N3Cc4cc(F)c(F)cc4C3)c(C)c(=O)n2c1 [Example 11-188, (R)-2-((1-(2-(5,6-difluoroisoindolin-2-yl)-3,7-dimethyl-4-oxo-4H-pyrido[1,2-a]pyrimidin-9-yl)ethyl)amino)benzoic acid] |  |  |  | 152 nM | > 10000 nM |
| Cc1cc(C(C)Nc2c(F)cccc2C(=O)O)c2nc(N3Cc4ccccc4C3)c(C)c(=O)n2c1 (stereo not drawn) [Example 11-363, 3-fluoro-2-((1-(2-(isoindolin-2-yl)-3,7-dimethyl-4-oxo-4H-pyrido[1,2-a]pyrimidin-9-yl)ethyl)amino)benzoic acid] |  | 2890 nM | > 10000 nM |  |  |

Other lines, results leading:

| IC50 [1] | IC50 ([2]; Homo sapiens, T47D, 72 h) | IC50 ([3]; Homo sapiens, SK-BR-3, 72 h) | IC50 [2] | IC50 [3] | SMILES |
| --- | --- | --- | --- | --- | --- |
| 2.6 nM | 78.5 nM | 7910 nM |  |  | Cc1cc([C@@H](C)Nc2ccccc2C(=O)O)c2nc(N3CCN(C(=O)c4ccc(Cl)cc4)CC3)c(C)c(=O)n2c1 [Example 10-82, (R)-2-((1-(2-(4-(4-chlorobenzoyl)piperazin-1-yl)-3,7-dimethyl-4-oxo-4H-pyrido[1,2-a]pyrimidin-9-yl)ethyl)amino)benzoic acid] |
| 0.905 nM | 84.4 nM | > 10000 nM |  |  | Cc1cc([C@@H](C)Nc2ccccc2C(=O)O)c2nc(N3CC[C@H]3C)c(C#N)c(=O)n2c1 (single isomer, unassigned) [Example 10-96] |
| 1.7 nM | 59 nM | > 10000 nM |  |  | C[C@@H](Nc1ccccc1C(=O)O)c1cc(F)cn2c(=O)c(C#N)c(N3Cc4ccccc4C3)nc12 [Example 10-39, (R)-2-((1-(3-cyano-7-fluoro-2-(isoindolin-2-yl)-4-oxo-4H-pyrido[1,2-a]pyrimidin-9-yl)ethyl)amino)benzoic acid] |
| 0.853 nM | 36.4 nM | > 10000 nM |  |  | Cc1cc([C@@H](C)Nc2ccccc2C(=O)O)c2nc(NCC3CC3)c(C#N)c(=O)n2c1 [Example 10-15, (R)-2-((1-(3-cyano-2-((cyclopropylmethyl)amino)-7-methyl-4-oxo-4H-pyrido[1,2-a]pyrimidin-9-yl)ethyl)amino)benzoic acid] |
| 15.5 nM | 80 nM | > 10000 nM |  |  | Cc1cc([C@@H](C)Nc2ccccc2C(=O)O)c2nc(N3CCN(c4ccc(F)cc4F)CC3)c(C#N)c(=O)n2c1 [Example 10-86, (R)-2-((1-(3-cyano-2-(4-(2,4-difluorophenyl)piperazin-1-yl)-7-methyl-4-oxo-4H-pyrido[1,2-a]pyrimidin-9-yl)ethyl)amino)benzoic acid] |
| 2.05 nM | 87.2 nM | 8760 nM |  |  | Cc1cc([C@@H](C)Nc2ccccc2C(=O)O)c2nc(C3CCN(c4ccc(C#N)cc4)CC3)c(C#N)c(=O)n2c1 [Example 10-103, (R)-2-((1-(3-cyano-2-(1-(4-cyanophenyl)piperidin-4-yl)-7-methyl-4-oxo-4H-pyrido[1,2-a]pyrimidin-9-yl)ethyl)amino)benzoic acid] |
| 2.62 nM | 98.8 nM | > 10000 nM |  |  | Cc1cc([C@@H](C)Nc2ccccc2C(=O)O)c2nc(NCC3(C)CC3(F)F)c(C#N)c(=O)n2c1 (stereo partly drawn) [Example 10-60, 2-(((1R)-1-(3-cyano-2-(((2,2-difluoro-1-methylcyclopropyl)methyl)amino)-7-methyl-4-oxo-4H-pyrido[1,2-a]pyrimidin-9-yl)ethyl)amino)benzoic acid] |
| 5.78 nM | 67.3 nM | > 10000 nM |  |  | Cc1cc([C@@H](C)Nc2ccccc2C(=O)O)c2nc(N3CCC(F)(F)[C@H]3C)c(C#N)c(=O)n2c1 [Example 10-32, 2-(((R)-1-(3-cyano-2-((R)-3,3-difluoro-2-methylpyrrolidin-1-yl)-7-methyl-4-oxo-4H-pyrido[1,2-a]pyrimidin-9-yl)ethyl)amino)benzoic acid] |
| 2.34 nM | 45.8 nM | 8070 nM |  |  | Cc1cc([C@@H](C)Nc2ccccc2C(=O)O)c2nc(N3CCN(c4ccc(C#N)cc4)[C@@H](C)C3)c(C)c(=O)n2c1 [Example 10-21, 2-(((R)-1-(2-((S)-4-(4-cyanophenyl)-3-methylpiperazin-1-yl)-3,7-dimethyl-4-oxo-4H-pyrido[1,2-a]pyrimidin-9-yl)ethyl)amino)benzoic acid] |
| 3.35 nM | 72.4 nM | 4140 nM |  |  | Cc1cc([C@@H](C)Nc2ccccc2C(=O)O)c2nc(N3CCN(c4ccc(C#N)cc4F)CC3)c(C)c(=O)n2c1 [Example 10-55, (R)-2-((1-(2-(4-(4-cyano-2-fluorophenyl)piperazin-1-yl)-3,7-dimethyl-4-oxo-4H-pyrido[1,2-a]pyrimidin-9-yl)ethyl)amino)benzoic acid] |
|  | 74.3 nM | > 10000 nM |  |  | COc1cc2c(cc1OC)CN(c1nc3c([C@@H](C)Nc4ccccc4C(=O)O)cc(C)cn3c(=O)c1C)C2 [Example 10-139, (R)-2-((1-(2-(5,6-dimethoxyisoindolin-2-yl)-3,7-dimethyl-4-oxo-4H-pyrido[1,2-a]pyrimidin-9-yl)ethyl)amino)benzoic acid] |
